In assay [1] the test system is arterial actin-myosin interactions. Kind of assay: Inhibition of superprecipitation (antagonism of actin-myosin interaction), Silver et al. It is filed as biochemical. The conditions noted are these: six minute time-point. The method, then: . The data reported herein was obtained at a six minute time-point rather than the 1.5, 5 and 12 minute time points indicated in the superprecipita- tion assay of the Silver et al paper.
(§1) The following examples illustrate the preparation of a representative number of compounds of this invention. After each example, the Ca+2 antagonist activity of the compound is presented in terms of percent relaxation of aortic tissue (P.R.) at 10-^5M concentration. […] Inhibition of super- precipitation (Antag. of Actin-Myosin interaction) is expressed as percent inhibition (mean ± standard error of the mean for at least 3 separate experiments) at a compound concentration. In the same manner, inhibition of myosin light chain phosphorylation (Antag. of MLCP) is expressed as a percent inhibition at a compound concentration. Similarly, the antihypertensive activity is reported in terms of millimetres mercury (mmHg) systolic blood pressure (B.P.) reduction at the stated time post 50 mg/kg oral dosing or other dosing as indicated.

Assay [2] relates to rabbit aortic smooth muscle. The assay is described as follows: Ca+2 antagonism: relaxation of KCl-depolarized rabbit aortic smooth muscle strips. The conditions noted are these: Oryctolagus cuniculus, 20 min, compound 1 x 10^-5M; 100mM KCl contraction; 20 minutes after addition; mean of two experiments; read-out: P.R. (percent relaxation of aortic tissue). The procedure:
The composition of PSS was as follows (mM): NaCl 112,KCI 5, NaHCO3 25 KH2PO4 1, MgSO4 1.2, CaCl2 2.5, dextrose 10. The lower end of each tissue strip was attached to a fixed post and the upper end to a Statham UC-4 transducer. Changes in force development were recorded on a Beckman Dynograph Polygraphic Recorder.
Following equilibration, the muscles were contracted in a depolarizing solution of PSS in which 100mM KCI was substituted for an equimolar concentration of NaCI. Following attainment of steady- state isometric force (20 min.), the test compound was added to afford a final concentration of 1 x 10^-5M. The inhibitory effect, expressed as percent relaxation, was determined from the mean of two experiments twenty minutes after the addition of the compound being tested.
as §1

The target of assay [3] is Ca^+2-calmodulin dependent myosin light chain phosphorylation (Bos taurus, UniProt Q28824). The assay is described as follows: Inhibition of myosin light chain phosphorylation (MLCP), Silver et al. It counts as biochemical. The conditions noted are these: read-out: Antag. of MLCP (percent inhibition of myosin light chain phosphorylation). The method, then: The data reported herein was obtained at a six minute time-point rather than the 1.5, 5 and 12 minute time points indicated in the superprecipita- tion assay of the Silver et al paper.
as §1

In assay [4] the test system is spontaneously hypertensive rats. The assay is described as follows: Hypotensive effect: systolic blood pressure of spontaneously hypertensive rats. It counts as in vivo. The conditions noted are these: mmHg per method. The procedure: The hypotensive in vivo effect of the compounds of this invention was determined by measuring changes in the systolic blood pressure of spontaneously hypertensive rats with a Decker Caudal Plethysmograph. The compound being tested was administered to a group of 4 rats and their systolic pressure was determined prior to and at 1.5 and 4 hours after compound administration. Initial testing was done by oral administration of the compound. Results (mmHg) are expressed as decreases in systolic blood pressure.
as §1

Assay [5] concerns isolated paced intact rabbit atria. The assay is described as follows: Cardiac depressant (negative inotropic) effect in isolated paced rabbit atria. The conditions noted are these: Oryctolagus cuniculus; rabbit atria paced at 3Hz, 30°C, cumulative dosing; read-out: IC25 (concentration which produces 25% inhibition of isometric force). The method, then: The potential for detrimental cardiac depressant (negative inotropic) effects of the compounds of this invention was assessed in isolated paced intact rabbit atria. […] Muscles (N=5-9/compound) were stimulated at a frequency of 3Hz with a WPI stimulator for a 60 minute equilibration period. Changes in isometric force were recorded as described for the aortic smooth muscle experiments, supra. […]

Setting [6] is: dose 25mg/kg oral, at 1.5 hours.
Where [7] appears, read: dose 10mg/kg oral, at 1.5 hours.

Results on 6 compounds are retold here after patent EP0211584A1, “Antihypertensive agents” (AMERICAN HOME PRODUCTS CORPORATION, priority 1985, dated 1987).

SMILES strings stand for the structures.

Take `CC1=C(C(=O)OCCOc2ccccc2)C(c2cccc(Cl)c2C)C2=C(CNCC2=O)N1` (stereo not drawn) [Example 17, 4-(3-Chloro-2-methylphenyl)-1,4,5,6,7,8-hexahydro-2-methyl-5-oxo-1,7-naphthyridine-3-carboxylic acid 2-phenoxyethyl ester]: the “Antag. of Actin-Myosin (percent inhibition of superprecipitation)” value in assay [1] (10µM) came out at 22%; in assay [1] (25µM), 44±2%; in assay [1] (50µM), 64±3%; in assay [1] (100µM), 71±2%. The inhibition at 10 µM in assay [2] was 74%; in assay [3], 11%. Also, the inhibition at 25 µM in assay [3] came to 39 ± 2%. Also, the inhibition at 50 µM in assay [3] was determined as 59 ± 3%. Also, in assay [3], the inhibition at 100 µM was determined as 67 ± 2%. Further, the “B.P. (systolic blood pressure reduction)” value in assay [4] (setting [6]) is given as -10 mm; in assay [4] (dose 25mg/kg oral, at 4 hours), -45 mm. For the same compound, the IC25 in assay [5] worked out at 1000 nM.

As to `CO[C@@H](COC(=O)C1=C(C)NC2=C(C(=O)CNC2)C1c1c(F)c(F)c(F)c(F)c1F)c1ccccc1` (stereo partly drawn) [Example 6, 1,4,5,6,7,8,-Hexahydro-2-methyl-5-oxo-4-(pentafluorophenyl)-1,7-naphthyridine-3-carboxylic acid (R)-2-methoxy-2-phenylethyl ester], the “Antag. of Actin-Myosin (percent inhibition of superprecipitation)” value turned out to be 64% in assay [1] (50µM) and 74% in assay [1] (100µM). For the same compound, the inhibition at 10 µM in assay [2] stood at 71%. Besides, in assay [3], the inhibition at 50 µM worked out at 56%. Further, in assay [3], the inhibition at 100 µM came to 70%. In addition, the “B.P. (systolic blood pressure reduction)” value in assay [4] (setting [7]) is -56 mm; in assay [4] (dose 10mg/kg oral, at 4 hours), -49 mm. For the same compound, in assay [5], the IC25 is 600 nM.

For `CO[C@H](COC(=O)C1=C(C)NC2=C(C(=O)CNC2)C1c1c(F)c(F)c(F)c(F)c1F)c1ccccc1` (stereo partly drawn) [Example 7, 1,4,5,6,7,8-Hexahydro-2-methyl-5-oxo-4-(pentafluorophenyl)-1,7-naphthyridine-3-carboxylic acid (S)-2-methoxy-2-ohenylethyl ester], the entries for the “Antag. of Actin-Myosin (percent inhibition of superprecipitation)” value in assay [1] (50µM) and in assay [1] (100µM) were 67% and 80%, respectively. In addition, in assay [2], the inhibition at 10 µM is 68%. In addition, the inhibition at 50 µM in assay [3] stood at 59%. Also, the inhibition at 100 µM in assay [3] came to 74%. The “B.P. (systolic blood pressure reduction)” value in assay [4] (setting [7]) is on record as -51 mm; in assay [4] (dose 10mg/kg oral, at 4 hours), -54 mm. In assay [5], the IC25 was 65000 nM.

With `CC1=C(C(=O)OCCOc2cccc(Cl)c2Cl)C(c2c(F)ccc(Cl)c2Cl)C2=C(CNCC2=O)N1` (stereo not drawn) [Example 25, 4-(2,3-dichloro-6-fluorophenyl)-1,4,5,6,7,8-hexahydro-2-methyl-5-oxo-1,7-naphthyridine-3-carboxylic acid 2-(2,3-dichlorophenoxy)ethyl ester], the “Antag. of Actin-Myosin (percent inhibition of superprecipitation)” value in assay [1] (10µM) was found to be 34±7%; in assay [1] (25µM) it was 55±2.5%; in assay [1] (50µM), 67±5%; in assay [1] (100µM) it was 73±2.4%. Besides, the inhibition at 10 µM in assay [2] came to 59%; in assay [3], 32 ± 8%. In assay [3], the inhibition at 25 µM turned out to be 48 ± 3%. In addition, the inhibition at 50 µM in assay [3] was 60 ± 4%. Moreover, in assay [3], the inhibition at 100 µM stood at 67 ± 2.3%. Moreover, the “B.P. (systolic blood pressure reduction)” value in assay [4] (dose 5mg/kg oral, at 1.5 hours) is reported as -18 mm; in assay [4] (dose 5mg/kg oral, at 4 hours), -40 mm; in assay [4] (setting [6]), -74 mm; in assay [4] (dose 25mg/kg oral, at 4 hours) it was -70 mm. Further, in assay [5], the IC25 amounted to 700 nM.

As to `CC1=C(C(=O)OCCc2ccccc2)C(c2c(F)c(F)c(F)c(F)c2F)C2=C(CNCC2=O)N1` (stereo not drawn) [Example 18, 1,4,5,6,7,8-Hexahydro-2-methyl-5-oxo-4-(pentafluorophenyl)-1,7-naphthyridine-3-carboxylic acid 2-phenylethyl ester], the figures for the “Antag. of Actin-Myosin (percent inhibition of superprecipitation)” value in assay [1] (25µM), in assay [1] (50µM) and in assay [1] (100µM) were 42%, 65% and 78±2%, respectively. Moreover, the inhibition at 10 µM in assay [2] came out at 48%. Besides, the inhibition at 25 µM in assay [3] turned out to be 35%. The inhibition at 50 µM in assay [3] is 64%. Moreover, the inhibition at 100 µM in assay [3] was determined as 77 ± 3%. Also, the “B.P. (systolic blood pressure reduction)” value in assay [4] (setting [7]) was -27 mm; in assay [4] (dose 10mg/kg oral, at 4 hours), -24 mm. For the same compound, the IC25 in assay [5] worked out at 1000 nM.

With `CC1=C(C(=O)OCCOc2ccccc2)C(c2c(F)c(F)c(F)c(F)c2F)C2=C(CNCC2=O)N1` (racemic) [Example 2, 1,4,5,6,7,8-Hexahydro-2-methyl-5-oxo-4-(pentafluorophenyl)-1,7-naphthyridine-3-carboxylic acid 2-phenoxvethvl ester], the “Antag. of Actin-Myosin (percent inhibition of superprecipitation)” value in assay [1] (25µM) amounted to 28± 2%. Besides, the “Antag. of Actin-Myosin (percent inhibition of superprecipitation)” value in assay [1] (50µM) came out at 58± 4%. The inhibition at 10 µM in assay [2] was determined as 71%. Besides, in assay [3], the inhibition at 25 µM came to 24 ± 3%, the inhibition at 50 µM came to 54 ± 4% and the inhibition at 100 µM was determined as 69 ± 3%. Further, the “B.P. (systolic blood pressure reduction)” value in assay [4] (setting [7]) was -39 mm. In addition, the IC25 in assay [5] is 1000 nM.
